The supplement of paper PMC11562712

Experiment: first-order primary biodegradation rate constant k (sorption-corrected, fDis-corrected) (d-1); higher = faster biodegradation
Procedure: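 Modified OECD 309 water-sediment test. River water plus sieved sediment (50 g wet solid/L) from European river segments (DE, CH, ES, EL) was spiked with a mixture of 129 compounds at 1 ug/L each and incubated in the dark at river temperature for 10 days. The water phase was analysed by UHPLC-Orbitrap-MS. The first-order primary biodegradation rate constant k (d-1) is k_observed, corrected for dissipation in sterile sorption controls and divided by the dissolved fraction fDis; it was fitted over 3 replicate incubations. Invalid fits (p > 0.05, n < 5, not available, concentration increase) are excluded.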

[1] = river segment: Germany (DE) T_Contam, incubation temperature 24 °C
[2] = river segment: Greece (EL) A_Contam, incubation temperature 19 °C
[3] = river segment: Greece (EL) G_Contam, incubation temperature 19 °C
[4] = river segment: Spain (ES) L_Contam, incubation temperature 24 °C
[5] = river segment: Switzerland (CH) U_Contam, incubation temperature 17 °C
[6] = river segment: Switzerland (CH) U_Pris, incubation temperature 17 °C
[7] = river segment: Greece (EL) L_Contam, incubation temperature 19 °C
[8] = river segment: Spain (ES) B_Contam, incubation temperature 24 °C
[9] = river segment: Switzerland (CH) C_Contam, incubation temperature 17 °C
[10] = river segment: Germany (DE) H_Contam, incubation temperature 24 °C
[11] = river segment: Germany (DE) T_Pris, incubation temperature 24 °C
[12] = river segment: Greece (EL) G_Pris, incubation temperature 19 °C
[13] = river segment: Spain (ES) C_Contam, incubation temperature 24 °C
[14] = river segment: Switzerland (CH) R_Contam, incubation temperature 17 °C
[15] = river segment: Spain (ES) F_Pris_Salt, incubation temperature 24 °C

Row | SMILES | first-order primary biodegradation rate constant k [1] | first-order primary biodegradation rate constant k [2] | first-order primary biodegradation rate constant k [3] | first-order primary biodegradation rate constant k [4] | first-order primary biodegradation rate constant k [5] | first-order primary biodegradation rate constant k [6] | first-order primary biodegradation rate constant k [7] | first-order primary biodegradation rate constant k [8] | first-order primary biodegradation rate constant k [9] | first-order primary biodegradation rate constant k [10] | first-order primary biodegradation rate constant k [11] | first-order primary biodegradation rate constant k [12] | first-order primary biodegradation rate constant k [13] | first-order primary biodegradation rate constant k [14] | first-order primary biodegradation rate constant k [15]
1 | CCNc1nc(NC(C)(C)C)nc(SC)n1 [Terbutryn] | 0.0714 | 0.0617 | 0.247 | 0.134 | 0.116 | 0.068 |  |  |  |  |  |  |  |  | 
2 | COc1ccc(C(CN(C)C)C2(O)CCCCC2)cc1 (stereo unspecified) [Venlafaxine] |  | 1.22 | 0.204 | 0.0394 | 0.0953 |  | 1.2 | 0.0466 | 0.00206 |  |  |  |  |  | 
3 | CN(C)C(=N)NC(=N)N [Metformin] | 0.0415 |  |  |  |  |  |  |  |  | 0.0281 | 0.0208 |  |  |  | 
4 | CC(=O)Nc1ccc(O)cc1 [Paracetamol] | 3.16 | 3.21 | 3.16 | 2.82 | 2.14 |  |  | 1.24 |  | 2.34 |  | 0.888 | 1.28 | 3.87 | 
5 | Cc1cc(C)nc(NS(=O)(=O)c2ccc(N)cc2)n1 [Sulfamethazine] | 0.365 | 0.0988 | 0.0667 | 0.9 |  | 0.0819 | 0.357 |  |  | 0.11 |  | 0.729 |  |  | 
6 | COC(=O)c1ccc(O)cc1 [Methylparaben] | 0.0815 | 0.106 | 0.0602 |  |  | 0.0832 | 0.211 |  | 0.175 | 0.119 | 0.1 |  | 0.151 |  | 4.7
7 | C#CCN(C)Cc1ccccc1 [Pargyline] | 0.425 | 0.519 | 0.773 |  | 0.596 | 0.768 | 0.513 | 0.0362 | 0.22 | 0.16 | 0.199 |  | 0.113 | 0.4 | 0.179
8 | Cc1ccc(C)c(OCCCC(C)(C)C(=O)O)c1 [Gemfibrozil] | 0.278 | 0.37 |  | 0.327 |  | 1.01 | 0.152 | 0.371 | 0.237 | 0.143 | 0.133 | 0.227 | 0.26 |  | 
9 | Cn1c(=O)c2c(ncn2C)n(C)c1=O [Caffeine] | 0.415 | 0.894 | 0.085 | 0.895 | 0.368 | 0.69 | 0.276 | 1.52 | 0.172 | 0.262 | 0.0734 | 0.0394 | 0.276 | 0.144 | 0.215
10 | CN(C)C(=O)Oc1cccc([N+](C)(C)C)c1 [Neostigmine] | 0.101 |  |  |  | 0.486 |  |  |  |  |  |  | 0.0309 |  |  | 
